{
  "source": "paper PMC7144376",
  "about": "“Antiviral Effects of Novel 2-Benzoxyl-Phenylpyridine Derivatives” (Molecules, 2020)",
  "assay_type_in_all_cases": "cell-based, Coxsackievirus B3",
  "key": {"CVB3 protein": {"test_system": "CVB3 protein", "assay": "CVB3 protein by indirect immunofluorescence", "details": "160 μM, Hep-2 cells", "method": "(§1) Figure 5 Effect of W13 on CVB3 replication in Hep-2 cells. Hep-2 cells infected with 100 TCID50 CVB3 were incubated in the absence or presence of 160 µM W13 and harvested at the indicated times post-infection. (a) Progeny virus yields were determined. (b) Viral RNA levels were measured by analysis of total RNA. GAPDH was amplified and the resulting data was used for normalization. Values represent the means ± SDs of three independent experiments. * p < 0.05; ** p < 0.01, compared with the virus control group. (c) CVB3 protein levels were determined by indirect immunofluorescence, using the mouse anti-coxsackie virus B3 monoclonal antibody, MAB948, and an alexa-fluor-488-conjugated affiniPure goat anti-mouse IgG (H + L), after incubation with W13 for 24 h. Nuclei were stained with DAPI and green foci indicate the presence of CVB3 protein.\nThe influence of W13 on CVB3 replication was also determined at the translational level. […] Then, intracellular viral protein was detected by indirect immunofluorescence analysis after incubation for 8, 24, and 36 h.\nHep-2 cells (1 × 10^5) were seeded in 24-well plates and incubated overnight. […] After the plates had been washed three times with 0.1% Tween-20 in PBS, they were incubated with the appropriate Alexa-Fluor-488-labeled secondary antibody (Invitrogen) and fluorescence evaluated using an OLYMPUS IX73 microscope (Tokyo, Japan)."}, "CVB3": {"test_system": "CVB3", "assay": "Time course of CVB3 progeny yield in Hep-2 cells", "details": "160 μM, 32 h pi", "method": "To further investigate the effects of these compounds on CVB3 replication, we analyzed the efficacy of representative compound, W13, in inhibiting viral progeny yield, RNA synthesis, and protein translation. Infected cells treated with or without 160 μM W-13 were harvested after 4 h, 8 h, 16 h and 32 h, viral progeny yields were determined using the Reed–Muench method, and quantitative reverse transcription polymerase chain reaction analysis of harvested cells were conducted, to evaluate the relative amounts of viral RNA. […] Figure 5b illustrates the efficacy of W-13 in inhibiting viral RNA synthesis. […]\nFigure 5 Effect of W13 on CVB3 replication in Hep-2 cells. […] (a) Progeny virus yields were determined. (b) Viral RNA levels were measured by analysis of total RNA. […] (c) CVB3 protein levels were determined by indirect immunofluorescence, using the mouse anti-coxsackie virus B3 monoclonal antibody, MAB948, and an alexa-fluor-488-conjugated affiniPure goat anti-mouse IgG (H + L), after incubation with W13 for 24 h. […]\nCVB3 or ADV7 suspensions, serially diluted 10-fold with DMEM containing 2% FBS (DMEM maintenance medium, MM), were inoculated to Hep-2 or HeLa cells in 96-well plates. […] After 2 days, infected cells were monitored for CPEs and virus titers were calculated using the Reed–Muench method."}, "CVB3 RNA": {"test_system": "CVB3 RNA", "assay": "CVB3 RNA by quantitative reverse transcription-PCR", "details": "160 μM, Hep-2 cells, 32 h pi, normalized to GAPDH", "method": "To further investigate the effects of these compounds on CVB3 replication, we analyzed the efficacy of representative compound, W13, in inhibiting viral progeny yield, RNA synthesis, and protein translation. Infected cells treated with or without 160 μM W-13 were harvested after 4 h, 8 h, 16 h and 32 h, viral progeny yields were determined using the Reed–Muench method, and quantitative reverse transcription polymerase chain reaction analysis of harvested cells were conducted, to evaluate the relative amounts of viral RNA. […] Figure 5b illustrates the efficacy of W-13 in inhibiting viral RNA synthesis. Viral RNA became detectable in the virus control group during the first 4 h pi, followed by significant increases at subsequent time points.\nas §1, with “Values represent the means ± SDs of three independent experiments. * p < 0.05; ** p < 0.01, compared with the virus control group.” left out, “Nuclei were stained with DAPI and green foci indicate the presence of CVB3 protein.” left out"}},
  "data": [
    {"smiles": "Cc1ccc(OC(=O)C(C)(C)C)c(-c2ccccn2)c1", "note": "[W13]", "values": [
      {"measurement": "viral protein synthesis (immunofluorescence foci)", "setting": "CVB3 protein", "result": "suppressed"},
      {"measurement": "reduction in viral replication (progeny virus titer)", "setting": "CVB3", "result": "~3.0", "unit": "log"},
      {"measurement": "reduction of viral RNA copy numbers", "setting": "CVB3 RNA", "result": "approximately 500 fold"}
    ]}
  ]
}
